Results from BigSolDB 2.1.

CNC(=O)c1cc(Oc2ccc(NC(=O)Nc3ccc(Cl)c(C(F)(F)F)c3)cc2)ccn1
solubility (mole fraction)
Conditions | 283.15 K | 293.15 K | 303.15 K | 313.15 K | 323.15 K | 333.15 K
in isobutanol | 0.000253 | 0.000379 | 0.000715 | 0.00104 | 0.00155 | 0.00216
in isopropanol | 0.000509 | 0.000638 | 0.00104 | 0.00152 | 0.00226 | 0.00325
in n-butanol | 0.000645 | 0.000816 | 0.0013 | 0.00193 | 0.00288 | 0.00417
in n-pentanol | 0.000599 | 0.000819 | 0.00122 | 0.00173 | 0.00256 | 0.00377
in n-propanol | 0.000678 | 0.000888 | 0.00137 | 0.00204 | 0.00313 | 0.00456

CNC(=O)c1cc(Oc2ccc(NC(=O)Nc3ccc(Cl)c(C(F)(F)F)c3)cc2)ccn1.Cc1ccc(S(=O)(=O)O)cc1
solubility (mole fraction)
Conditions | 283.15 K | 293.15 K | 303.15 K | 313.15 K | 323.15 K | 333.15 K
in isobutanol | 6.18e-05 | 9.67e-05 | 0.000149 | 0.000216 | 0.000284 | 0.000423
in isopropanol | 7.81e-05 | 0.000109 | 0.00016 | 0.000229 | 0.000311 | 0.000442
in n-butanol | 0.000132 | 0.000163 | 0.000238 | 0.000316 | 0.000419 | 0.000541
in n-pentanol | 5.78e-05 | 8.76e-05 | 0.000148 | 0.000209 | 0.000272 | 0.000394
in n-propanol | 0.000139 | 0.000175 | 0.000258 | 0.000344 | 0.000456 | 0.000622
